Where two headings read alike, the source gives them in different places.
Experiments:
[1] = test system: Candida albicans ATCC10231; test: Candida albicans vaginitis in mice, intravenous administration; settings: logarithm of the CFU values, mean ± SD of 20 mice
Protocol: KM mice, weighing 18-22 g, female, provided by Hubei Experimental Animal Center.
The standard strain of Candida albicans was purchased from the American Type Culture
Collection, strain number ATCC10231.
Prior to being infected with Candida albicans, animals in each group were given subcutaneous injections of 0.5 ml of estradiol benzoate (2 mg/ml) for 6 consecutive days to allow them to enter the estrus phase. Injections were continued once every 2 days until the completion of the experiment. After 6 days, 20 μl of Candida albicans solution in a concentration of 3.5×10^6 CFU/ml was injected vaginally into each mouse, causing a vaginal infection model. From the first day after infection, each group of animals was given 20 mg/kg of the corresponding drug (calculated as posaconazole) in the tail vein at an administration volume of 0.1 ml/10 g once a day for 5 consecutive days. The model group was given an equal volume of solvent (physiological saline). On the 3rd and 5th days after infection, the vagina of mice were wiped with sterile cotton swabs. The cotton swabs were soaked in 0.9 ml physiological saline. The fungal solutions were diluted to 10-fold increments to give a series of concentrations, and then 100 μl of each concentration of the bacteria solutions was taken and inoculated on Sabourand's dextrose agar solid medium containing 0.5% (W/V) chloramphenicol to observe the fungal load of Candida albicans on the vagina.

[2] = test system: Aspergillus fumigatus AF293; test: Lung Aspergillus fumigatus infection in immunosuppressed mice, intravenous administration; settings: for responders at 20 mg/kg: Aspergillus fumigatus, AF293, in Mus musculus, iv; for lung fungal load: mouse lung tissue, seven days later, 20 mg/kg tail vein once daily for 5 days, mean ± SD
[3] = test system: Candida albicans ATCC10231; test: Candida albicans vaginitis in mice, intragastric administration; type: in vivo, KM mice; settings: logarithm of the CFU values, mean ± SD of 20 mice, 20 mg/kg intragastric once a day
[4] = test system: Candida albicans ATCC10231; test: Systemic fungal infection in mice, intravenous administration; type: in vivo, ICR mice
[5] = Determination of solubility in deionized water (HPLC, external standard); settings: 25 °C, water, thermodynamic from solid
[6] = test system: Candida albicans ATCC10231; test: Systemic fungal infection in mice, intragastric administration; type: in vivo, ICR mice; settings: Candida albicans, ATCC10231, po
[7] = test system: Aspergillus Fumigutus (AF) strains; test: Aspergillus fumigatus keratitis in rats, intravenous administration; settings: 10 mg/kg tail vein once daily for 5 days; mean ± SD of 10 rats
[8] = 24 h, read-out: survival rate of mice, day 1, 20 mg/kg tail vein once daily for 5 days, day 1
[9] = 48 h, read-out: survival rate of mice, day 2, 20 mg/kg tail vein once daily for 5 days, day 2
[10] = 72 h, read-out: survival rate of mice, day 3, 20 mg/kg tail vein once daily for 5 days, day 3
[11] = 96 h, read-out: survival rate of mice, day 4, 20 mg/kg tail vein once daily for 5 days, day 4
[12] = 120 h, read-out: survival rate of mice, day 5, 20 mg/kg tail vein once daily for 5 days, day 5
[13] = 144 h, read-out: survival rate of mice, day 6, 20 mg/kg tail vein once daily for 5 days, day 6
[14] = 168 h, read-out: survival rate of mice, day 7, 20 mg/kg tail vein once daily for 5 days, day 7
[15] = 24 h, read-out: survival rate of mice, day 1, 20 mg/kg intragastric once daily for 5 days, day 1
[16] = 48 h, read-out: survival rate of mice, day 2, 20 mg/kg intragastric once daily for 5 days, day 2
[17] = 72 h, read-out: survival rate of mice, day 3, 20 mg/kg intragastric once daily for 5 days, day 3
[18] = 96 h, read-out: survival rate of mice, day 4, 20 mg/kg intragastric once daily for 5 days, day 4
[19] = 120 h, read-out: survival rate of mice, day 5, 20 mg/kg intragastric once daily for 5 days, day 5
[20] = 144 h, read-out: survival rate of mice, day 6, 20 mg/kg intragastric once daily for 5 days, day 6
[21] = 168 h, read-out: survival rate of mice, day 7, 20 mg/kg intragastric once daily for 5 days, day 7

Compound | responders at 20 mg/kg [2, 8] [%] | responders at 20 mg/kg [2, 9] [%] | responders at 20 mg/kg [2, 10] [%] | responders at 20 mg/kg [2, 11] [%] | responders at 20 mg/kg [2, 12] [%] | responders at 20 mg/kg [2, 13] [%] | responders at 20 mg/kg [2, 14] [%] | lung fungal load [2] | vaginal fungal load of mice, day 3 [3] | vaginal fungal load of mice, day 5 [3] | vaginal fungal load of mice, day 7 [3] | vaginal fungal load of mice, day 11 [3] | solubility at 30 min [5] [mg/mL] | responders at 20 mg/kg [6, 15] [%] | responders at 20 mg/kg [6, 16] [%] | responders at 20 mg/kg [6, 17] [%] | responders at 20 mg/kg [6, 18] [%] | responders at 20 mg/kg [6, 19] [%] | responders at 20 mg/kg [6, 20] [%] | responders at 20 mg/kg [6, 21] [%] | also measured
CC[C@@H]([C@H](C)O)n1ncn(-c2ccc(N3CCN(c4ccc(OC[C@@H]5CO[C@@](Cn6c[n+](C(C)OC(=O)N(C)c7ncccc7COC(=O)[C@@H](N)CCCNC(N)=O)cn6)(c6ccc(F)cc6F)C5)cc4)CC3)cc2)c1=O (stereo partly drawn) [ST0012] | 100 | 100 | 100 | 100 | 100 | 90 | 90 | 1.42 ± 0.30 10^4 CFU/ml | 4.17 ± 0.43 | 4.12 ± 0.35 | 3.10 ± 0.34 | 2.42 ± 0.19 | > 50 | 100 | 100 | 100 | 80 | 80 | 80 | 80 | vaginal fungal load of mice, day 5 ([1]; 20 mg/kg tail vein once a day for 5 days, day 5 after infection): 3.75 ± 0.26; vaginal fungal load of mice, day 3 ([1]; 20 mg/kg tail vein once a day, day 3 after infection): 4.01 ± 0.28; responders at 20 mg/kg ([4]; 24 h, read-out: survival rate of mice, day 1): 100%; responders at 20 mg/kg ([4]; 48 h, read-out: survival rate of mice, day 2): 100%; responders at 20 mg/kg ([4]; 72 h, read-out: survival rate of mice, day 3): 100%; responders at 20 mg/kg ([4]; 96 h, read-out: survival rate of mice, day 4): 100%; responders at 20 mg/kg ([4]; 120 h, read-out: survival rate of mice, day 5): 100%; responders at 20 mg/kg ([4]; 144 h, read-out: survival rate of mice, day 6): 100%; responders at 20 mg/kg ([4]; 168 h, read-out: survival rate of mice, day 7): 90%; Amount of active fungi in cornea at day 7 [7]: 1.45 ± 0.37 10^3 CFU/ml
CC[C@@H]([C@H](C)O)n1ncn(-c2ccc(N3CCN(c4ccc(OC[C@@H]5CO[C@@](Cn6c[n+](C(C)OC(=O)N(C)c7ncccc7COC(=O)[C@@H](N)CCN)cn6)(c6ccc(F)cc6F)C5)cc4)CC3)cc2)c1=O (stereo partly drawn) [ST0006] | 100 | 100 | 100 | 100 | 90 | 90 | 80 | 1.73 ± 0.34 10^4 CFU/ml | 4.32 ± 0.29 | 4.18 ± 0.20 | 3.49 ± 0.54 | 2.84 ± 0.37 | > 50 | 100 | 100 | 90 | 80 | 70 | 70 | 70 | Amount of active fungi in cornea at day 7 [7]: 1.92 ± 0.41 10^3 CFU/ml

Source: patent US10517867B2, “Posaconazole derivative, pharmaceutical composition and use thereof” (priority 2016, dated 2019)
